pIC50: −log10 of the molar value.
Experiments:
Assay type in all cases: tissue-based
[1] = target: Histamine H1 receptor (Cavia porcellus) (UniProt P31389); assay: Inhibition of H1 receptor in Cavia porcellus Hartley (guinea pig) ileum assessed as inhibition of histamine-induced spasms incubated at 10 '-3 M 2 min prior histamine-challenge
Histamine H1 receptor = Histamine H1 receptor (Cavia porcellus, UniProt P31389); assay: Inhibition of H1 receptor in Cavia porcellus Hartley (guinea pig) ileum assessed as inhibition of histamine-induced spasms incubated 2 min prior histamine-challenge
[2] = target: Histamine H1 receptor (Cavia porcellus) (UniProt P31389); assay: Inhibition of H1 receptor in Cavia porcellus Hartley (guinea pig) ileum assessed as inhibition of histamine-induced spasms incubated at 10 '-2 M 2 min prior histamine-challenge
[3] = target: Histamine H1 receptor (Cavia porcellus) (UniProt P31389); assay: Inhibition of H1 receptor in Cavia porcellus Hartley (guinea pig) ileum assessed as inhibition of histamine-induced spasms incubated at 10 '-5 M 2 min prior histamine-challenge
[4] = target: Histamine H1 receptor (Cavia porcellus) (UniProt P31389); assay: Inhibition of H1 receptor in Cavia porcellus Hartley (guinea pig) ileum assessed as inhibition of histamine-induced spasms incubated 2 min prior histamine-challenge relative to acrivastine
[5] = target: Histamine H1 receptor (Cavia porcellus) (UniProt P31389); assay: Inhibition of H1 receptor in Cavia porcellus Hartley (guinea pig) ileum assessed as inhibition of histamine-induced spasms incubated at 10 '-6 M 2 min prior histamine-challenge
[6] = target: Histamine H1 receptor (Cavia porcellus) (UniProt P31389); assay: Inhibition of H1 receptor in Cavia porcellus Hartley (guinea pig) ileum assessed as inhibition of histamine-induced spasms incubated at 10 '-4 M 2 min prior histamine-challenge

Sequence of Histamine H1 receptor (P31389 whole entry): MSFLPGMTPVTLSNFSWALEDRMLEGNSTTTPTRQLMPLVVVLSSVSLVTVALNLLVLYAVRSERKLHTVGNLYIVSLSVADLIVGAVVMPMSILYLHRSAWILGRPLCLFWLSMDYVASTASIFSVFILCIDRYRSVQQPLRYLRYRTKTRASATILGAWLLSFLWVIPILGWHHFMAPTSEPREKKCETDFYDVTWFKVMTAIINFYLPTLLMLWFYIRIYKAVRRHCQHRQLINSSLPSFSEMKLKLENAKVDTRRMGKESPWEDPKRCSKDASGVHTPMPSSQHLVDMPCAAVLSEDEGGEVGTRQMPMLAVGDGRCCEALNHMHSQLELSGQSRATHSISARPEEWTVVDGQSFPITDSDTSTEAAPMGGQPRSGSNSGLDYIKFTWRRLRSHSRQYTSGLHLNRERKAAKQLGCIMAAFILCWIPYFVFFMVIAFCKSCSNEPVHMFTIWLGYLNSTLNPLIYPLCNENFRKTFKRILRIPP
Sequence of Histamine H1 receptor (Cavia porcellus) (P31389 whole entry): as above

Question: With Cc1ccc(/C(=C\CN2CCCC2)c2cccc(/C=C/C(=O)O)n2)cc1 [ACRIVASTINE] as the molecule, how does the inhibition [1] read?
Answer: The inhibition was 100%.

Question: What about the pIC50 (Histamine H1 receptor) of the same molecule?
Answer: The pIC50 was 5.21.

Question: What about the inhibition [2] of the same molecule?
Answer: Its inhibition is 100%.

Question: And the inhibition [3]?
Answer: Its inhibition is 60%.

Question: What about the Emax [4] of the same molecule?
Answer: Its Emax is 100%.

Question: And the inhibition [5]?
Answer: Its inhibition is 16.6%.

Question: What about the inhibition [6] of the same molecule?
Answer: Its inhibition is 100%.

Question: CC(CO)(CO)NCc1nc2ccccc2[nH]1 was tested. Which inhibition [1] did it give?
Answer: Its inhibition is 50%.

Question: And the inhibition [2]?
Answer: Its inhibition is 85.7%.

Question: What about the inhibition [3] of the same molecule?
Answer: Its inhibition is 11.2%.

Question: What about the Emax [4] of the same molecule?
Answer: Its Emax is 14.2%.

Question: What about the inhibition [5] of the same molecule?
Answer: Its inhibition is 0%.

Question: And the inhibition [6]?
Answer: The inhibition was 14.2%.

Question: Which results are given for O=C1c2ccccc2C(=O)N1CC(O)CNC1CCCCC1 (racemic)?
Answer: inhibition [1]: 66%; inhibition [2]: 78.3%; inhibition [3]: 33.3%; Emax [4]: 37.5%; inhibition [5]: 12.9%; inhibition [6]: 37.5%

Question: For CC(CO)(CO)NCCCN1C(=O)c2ccccc2C1=O, which inhibition [1] is on record?
Answer: The inhibition was 69.2%.

Question: What about the pIC50 (Histamine H1 receptor) of the same molecule?
Answer: Its pIC50 is 4.10.

Question: What about the inhibition [2] of the same molecule?
Answer: The inhibition was 100%.

Question: And the inhibition [3]?
Answer: Its inhibition is 28.4%.

Question: And the Emax [4]?
Answer: The Emax was 54%.

Question: What about the inhibition [5] of the same molecule?
Answer: Its inhibition is 5.45%.

Question: What about the inhibition [6] of the same molecule?
Answer: The inhibition was 54%.

Question: What does the source list for CC(C)CNCC(C)(C)N1C(=O)c2ccccc2C1=O?
Answer: inhibition [1]: 20%; inhibition [2]: 22%; inhibition [3]: 16%; Emax [4]: 18%; inhibition [5]: 14%; inhibition [6]: 18%

Question: O=C1NC(=O)C(=CNC2CCCCC2)C(=O)N1 was tested. Which inhibition [1] did it give?
Answer: Its inhibition is 100%.

Question: What about the pIC50 (Histamine H1 receptor) of the same molecule?
Answer: The pIC50 was 5.15.

Question: What about the inhibition [2] of the same molecule?
Answer: Its inhibition is 100%.

Question: What about the inhibition [3] of the same molecule?
Answer: Its inhibition is 55.3%.

Question: And the Emax [4]?
Answer: Its Emax is 100%.

Question: What about the inhibition [5] of the same molecule?
Answer: Its inhibition is 20%.

Question: And the inhibition [6]?
Answer: The inhibition was 100%.

Question: What does the source list for CC(C)(CO)NCC(C)(C)N1C(=O)c2ccccc2C1=O?
Answer: inhibition [1]: 62.9%; inhibition [2]: 100%; inhibition [3]: 0%; Emax [4]: 20%; inhibition [5]: 0%; inhibition [6]: 20%

Question: With O=C1NC(=O)C(=CN2CCOCC2)C(=O)N1 as the molecule, how does the inhibition [1] read?
Answer: The inhibition was 100%.

Question: And the pIC50 (Histamine H1 receptor)?
Answer: Its pIC50 is 4.06.

Question: And the inhibition [2]?
Answer: Its inhibition is 100%.

Question: What about the inhibition [3] of the same molecule?
Answer: Its inhibition is 57.3%.

Question: What about the Emax [4] of the same molecule?
Answer: Its Emax is 100%.

Question: And the inhibition [5]?
Answer: Its inhibition is 12.8%.

Question: What about the inhibition [6] of the same molecule?
Answer: Its inhibition is 100%.

Question: How did the inhibition [1] turn out when OCCN(Cc1nc2ccccc2[nH]1)c1nc2ccccc2[nH]1 was run?
Answer: The inhibition was 60%.

Question: What about the inhibition [2] of the same molecule?
Answer: Its inhibition is 65.5%.

Question: And the inhibition [3]?
Answer: The inhibition was 10.5%.

Question: What about the Emax [4] of the same molecule?
Answer: Its Emax is 11%.

Question: And the inhibition [5]?
Answer: The inhibition was 0%.

Question: And the inhibition [6]?
Answer: The inhibition was 11%.

Question: What does the source list for CC(CO)(CO)Nc1nc2ccccc2[nH]1?
Answer: inhibition [1]: 69%; pIC50 (Histamine H1 receptor): 4.54; inhibition [2]: 100%; inhibition [3]: 29.6%; Emax [4]: 55%; inhibition [5]: 7.16%; inhibition [6]: 55%

Question: Which inhibition [1] does the source give for CC(C)(CO)NC=C1C(=O)NC(=O)NC1=O here?
Answer: Its inhibition is 85.5%.

Question: What about the pIC50 (Histamine H1 receptor) of the same molecule?
Answer: The pIC50 was 5.21.

Question: What about the inhibition [2] of the same molecule?
Answer: Its inhibition is 100%.

Question: And the inhibition [3]?
Answer: Its inhibition is 40%.

Question: And the Emax [4]?
Answer: Its Emax is 65%.

Question: And the inhibition [5]?
Answer: Its inhibition is 16.7%.

Question: And the inhibition [6]?
Answer: Its inhibition is 65%.

Question: How did the inhibition [1] turn out when CC(C)(CO)N1C(=O)c2ccccc2C1=O was run?
Answer: Its inhibition is 0%.

Question: What about the inhibition [2] of the same molecule?
Answer: Its inhibition is 0%.

Question: What about the inhibition [3] of the same molecule?
Answer: The inhibition was 0%.

Question: What about the Emax [4] of the same molecule?
Answer: Its Emax is 0%.

Question: What about the inhibition [5] of the same molecule?
Answer: The inhibition was 0%.

Question: And the inhibition [6]?
Answer: The inhibition was 0%.

Question: With CCOC(=O)N1CCN(C=C2C(=O)NC(=O)NC2=O)CC1 as the molecule, how does the inhibition [1] read?
Answer: Its inhibition is 25%.

Question: What about the inhibition [2] of the same molecule?
Answer: Its inhibition is 25%.

Question: And the inhibition [3]?
Answer: Its inhibition is 9%.

Question: What about the Emax [4] of the same molecule?
Answer: The Emax was 25%.

Question: What about the inhibition [5] of the same molecule?
Answer: Its inhibition is 8%.

Question: And the inhibition [6]?
Answer: The inhibition was 25%.

Reference: ChEMBL document CHEMBL3046530, “Novel potential nonsedating H1 antagonists related to the gauche rotamer of PROS-NH-histamine” (Med Chem Res, 2009)
